Test results reported in article PMC5845353, “The selective cathepsin K inhibitor MIV-711 attenuates joint pathology in experimental animal models of osteoarthritis” (Journal of Translational Medicine, 2018).
Where “and” joins values, the source holds several entries; their conditions need not be identical. Equal values may be shown once.

Assays:
plasma proteins = experiment: Fraction bound to plasma proteins, rabbit; format: in vitro ADME
[1] = test system: dogs subjected to partial medial meniscectomy; experiment: Dog study, principal components analysis of exposure, biomarker, macro- and microscopic data; format: in vivo; details: 30 µmol/kg, p < 0.001
Description: Biomarker data was evaluated by two-way ANOVA, followed by Bonferroni’s or Dunnett’s correction for multiple comparisons when appropriate, using GraphPad Prism, version 6 (San Diego, CA). Synovial MIV-711 exposure data was evaluated by Student’s paired t-test. Data from µCT in rabbits was evaluated by one-way ANOVA followed by Dunnett’s correction for multiple comparisons (GraphPad). Macroscopic parameters in dogs were compared using Student’s unpaired t-test. The exposure data, biomarker data and macro- and microscopic data from the dog study were also imported into R (R Foundation for Statistical Computing Version 2.15.0, Vienna, Austria). A principal components analysis was performed using procedure prcomp. Derived scores were subjected to t-tests in Microsoft Excel 2007. Data are expressed as mean ± SEM, n = number of animals. A p-value < 0.05 was considered statistically significant.

[2] = test system: dogs subjected to partial medial meniscectomy; experiment: Dog partial medial meniscectomy study, collagen damage width; format: in vivo
Source text: Collagen damage across the medial tibial plateau (most severely affected section) was quantified by measuring the total width of the following:
Any damage (fibrillation ranging from superficial to full thickness loss)
Severe damage (total or near total loss of collagen to tidemark, >90% thickness)
Marked damage (extends through 61-90% of the cartilage thickness)
Moderate damage (extends thru 31-60% of the cartilage thickness)
Mild damage (extends through 11-30% of the cartilage thickness)
Minimal damage (very superficial, affecting upper 10% only)
Single clefts were arbitrarily given a measure of 100 µm and the number of clefts was multiplied by 100 if several are present.

Knee OA patients = details: once daily treatment for 6 months; cited from earlier work
[3] = test system: rabbits subjected to anterior cruciate ligament transection (ACLT); experiment: Rabbit ACLT study, µCT osteophyte volume; format: in vivo; details: 30 and 100 µmol/kg, data not shown
Description: Starting 1 week after sham operation or ACLT, animals were dosed daily for 7 weeks by oral gavage with either MIV-711 (synthesized by Medivir and given as a suspension in 1% Methocel A4C in water) or vehicle (1% Methocel A4C in water) at a dose volume of 4 mL/kg. The four treatment groups (n = 7 in each group) were: (1) sham + vehicle; (2) ACLT + vehicle; (3) ACLT + MIV-711, 30 µmol/kg (low dose) and (4) ACLT + MIV-711, 100 µmol/kg (high dose).
Femora and tibias from all animals were subjected to µCT scanning without and with contrast reagent, to visualize bone and cartilage, respectively. Samples were scanned on a high-resolution, volumetric µCT scanner (μCT40, ScanCo Medical, Zurich, CH). The image data was acquired with the following parameters: 36 μm isotropic voxel resolution at 300 ms exposure time, 2000 views and 1 frame per view. Each sample was scanned twice, once for acquiring bone data and once for soft tissue data. […] After the segmentation process, the voxel count associated with each of the regions of interest was calculated using VHLab. […] Cartilage thickness was calculated using SCIRun (Scientific Computing and Imaging Institute, University of Utah). The distance from the bone to the outer surface of the articulating cartilage was calculated. […] Similarly, the thickness and thickness map image of the subchondral bone was calculated. […]

[4] = individual animals of MIV-711 group

## C#C[C@@H]1CN(C(=O)[C@H](CC(C)C)NC(=O)c2ccc(-c3nc(N4CCN(C)CC4)sc3F)cc2)[C@@H]2C(=O)CO[C@H]12 [MIV-711]
Plasma proteins
  fraction bound to plasma proteins: 92%
[1]
  principal component Score 2 (mainly biomarker data), vehicle vs MIV-711-treated groups: significantly different
[2]; group Mean
  collagen degeneration, percentage of total width: Mild: 17%
  collagen degeneration, percentage of total width: Mild+ Minimal: 28%
  collagen degeneration, percentage of total width: Minimal: 11%
  collagen degeneration, percentage of total width: Moderate+ Mild+ Minimal: 30%
  collagen degeneration, percentage of total width: Normal: 70%
  collagen degeneration, percentage of total width: Severe: 0%
  collagen degeneration, percentage of total width: Severe+ Marked: 0%
  collagen degeneration, percentage of total width: Severe+ Marked+ Moderate: 2%
  collagen degeneration, percentage of total width: Severe+ Marked+ Moderate+ Mild: 19%
  collagen degeneration, percentage of total width: Total: 30%
[2]; [4]
  collagen degeneration, percentage of total width: Mild: 10% and 26% and 11% and 4% and 31% and 27% and 13% and 25% and 30% and 14% and 8% and 16%
  collagen degeneration, percentage of total width: Mild+ Minimal: 18% and 31% and 23% and 14% and 35% and 39% and 20% and 24% and 34% and 58% and 25% and 16% and 28% and 30%
  collagen degeneration, percentage of total width: Minimal: 9% and 5% and 12% and 10% and 4% and 7% and 8% and 27% and 2% and 20% and 14%
  collagen degeneration, percentage of total width: Moderate+ Mild+ Minimal: 19% and 31% and 23% and 24% and 35% and 39% and 27% and 34% and 58% and 29% and 18% and 28% and 26% and 30%
  collagen degeneration, percentage of total width: Normal: 81% and 69% and 77% and 76% and 65% and 61% and 73% and 62% and 42% and 71% and 82% and 72% and 74% and 70%
  collagen degeneration, percentage of total width: Severe: 0%
  collagen degeneration, percentage of total width: Severe+ Marked: 0%
  collagen degeneration, percentage of total width: Severe+ Marked+ Moderate: 1% and 0% and 10% and 7% and 4% and 2% and 3%
  collagen degeneration, percentage of total width: Severe+ Marked+ Moderate+ Mild: 11% and 26% and 14% and 31% and 27% and 20% and 13% and 25% and 30% and 17% and 16% and 8% and 19%
  collagen degeneration, percentage of total width: Total: 19% and 31% and 23% and 24% and 35% and 39% and 27% and 38% and 58% and 29% and 18% and 28% and 26% and 30%
[2]; versus Vehicle
  % inhibition, collagen degeneration width: Mild: -2%
  % inhibition, collagen degeneration width: Mild+ Minimal: 12%
  % inhibition, collagen degeneration width: Minimal: 28%
  % inhibition, collagen degeneration width: Moderate+ Mild+ Minimal: 12%
  % inhibition, collagen degeneration width: Normal: -6%
  % inhibition, collagen degeneration width: Severe+ Marked+ Moderate: 21%
  % inhibition, collagen degeneration width: Severe+ Marked+ Moderate+ Mild: 1%
  % inhibition, collagen degeneration width: Total: 12%
Knee OA patients
  benefit on joint structure by MRI compared to placebo: significantly lower increases in bone area and cartilage thinning
[3]
  effect on osteophyte volumes in femur and tibia (µCT): not apparently affected
